Experimental data reported in US20260130933A1, “PHARMACEUTICAL COMPOSITION FOR PREVENTION OR TREATMENT OF NEPHROPATHY AND/OR DIABETES MELLITUS, COMPRISING ENAVOGLIFLOZIN” (DAEWOONG PHARMACEUTICAL CO., LTD., priority 2022, published 2026).

Test: Example 3: phase 3 trial, enavogliflozin 0.3 mg vs dapagliflozin 10 mg once a day for 24 weeks added to metformin and gemigliptin in patients with type 2 diabetes (same endpoints, rescue drug)
Type: in vivo, human
Settings: week 6
Description: 1) when Metformin (≥1,000 mg/Day) was Administered at a Constant Dose for at Least 8 Weeks Prior to Pre-Visit (Pre-Screening) • Metformin (≥1,000 mg/day) and gemigliptin (50 mg/day) were co-administered during the 8-week stabilization period. […] 4) when Metformin (≥1,000 mg/Day) and Gemigliptin (50 mg/Day) were Co-Administered at Constant Doses for at Least 8 Weeks Prior to Pre-Visit (Prescreening) • Without a separate stabilization period, Pre-visit (pre-screening) was Visit 1 (screening).
Subjects who met the inclusion/exclusion criteria continued to receive metformin and gemigliptin while receiving a placebo of the clinical trial drug in a single-blind (subject-blinded) state for a 2-week run-in period.
Here, the randomized subjects were stratified according to the administration therapy (co-administration with two or less agents (one or two agents) or three or more agents) of a conventional hypoglycemic agent (before washout of another hypoglycemic agent) within 24 weeks prior to obtaining written informed consent and by an HbA1c value (<8% or ≥8%) at Visit 1 (screening) measured in the central laboratory.
The randomized subjects were administered two tablets of the clinical trial drug corresponding to each administration group once a day, and then visited the institution at weeks 6, 12, 18, and 24 during the 24-week administration period to conduct efficacy and safety assessments. In addition, during the clinical trial period, they were instructed to exercise regularly and control their diet without changing their daily life patterns.
• 1) Change in HbA1c at week 24 after administration of clinical trial drug compared to Visit 2 (randomization)
• 1) Change in HbA1c at each time point of weeks 6, 12, and 18 after administration of clinical trial drug compared to Visit 2 (randomization) • 2) Change in FPG at each time point of weeks 6, 12, 18, and 24 after administration of clinical trial drug compared to Visit 2 (randomization) • 3) Proportion of subjects achieving HbA1c<7% at each time point of weeks 6, 12, 18, and 24 after administration of clinical trial drug • 4) Proportion of subjects achieving HbA1c<6.5% at each time point of weeks 6, 12, 18, and 24 after administration of clinical trial drug • 5) Proportion of subjects achieving therapeutic response (HbA1c change (HbA1c at Visit 2—HbA1c at each evaluation time point)>0.5% or HbA1c<7% at each evaluation time point compared to Visit 2 (randomization)) at each time point of weeks 6, 12, 18, and 24 after administration of clinical trial drug • 6) Proportion of subjects achieving therapeutic response (HbA1c change (HbA1c at Visit 2—HbA1c at each evaluation time point)>0.7% or HbA1c<7% at each evaluation time point compared to Visit 2 (randomization)) at each time point of weeks 6, 12, 18, and 24 after administration of clinical trial drug • 7) Proportion of subjects achieving therapeutic response (HbA1c change (HbA1c at Visit 2—HbA1c at each evaluation time point)>1% or HbA1c<7% at each evaluation time point compared to Visit 2 (randomization)) at each time point of weeks 6, 12, 18, and 24 after administration of clinical trial drug

[1] = modified per-protocol set 2, enavogliflozin 0.3 mg, dapagliflozin 10 mg
[2] = per-protocol set, enavogliflozin 0.3 mg vs dapagliflozin 10 mg
[3] = per-protocol set, enavogliflozin 0.3 mg, dapagliflozin 10 mg

## OC[C@H]1O[C@@H](c2cc(Cc3ccc(C4CC4)cc3)c(Cl)c3c2CCO3)[C@H](O)[C@@H](O)[C@@H]1O [Enavogliflozin, (2S,3R,4R,5S,6R)-2-(7-chloro-6 (4-cyclopropylbenzyl)-2,3-dihydrobenzofuran-4-yl)-6-(hydroxymethyl)tetrahydro-2H-pyran-3,4,5-triol]
Modified per-protocol set 2
  Change from baseline in diastolic blood pressure, ANCOVA LS mean: −2.04 mmHg
  Change from baseline in diastolic blood pressure, LS mean difference (enavogliflozin − dapagliflozin): −0.16 mmHg
  Change from baseline in diastolic blood pressure, Mean: −2.76 mmHg
  Change from baseline in diastolic blood pressure, Median: −3.00 mmHg
  Diastolic blood pressure, Mean: 73.72 mmHg
  Diastolic blood pressure, Median: 74.00 mmHg
Modified per-protocol set 2, enavogliflozin 0.3 mg vs dapagliflozin 10 mg
  Change from baseline in systolic blood pressure, ANCOVA LS mean difference: 0.73 mmHg
[1]
  Change from baseline in systolic blood pressure, ANCOVA LS mean: −2.76 mmHg
  Change from baseline in systolic blood pressure, Mean: −3.67 mmHg
  Change from baseline in systolic blood pressure, Median: −3.00 mmHg
  Systolic blood pressure, Mean: 124.04 mmHg
  Systolic blood pressure, Median: 123.00 mmHg
per-protocol set
  Adiponectin, Mean: 6.20 µg/mL
  Adiponectin, Median: 5.40 µg/mL
  Change from baseline in HOMA-IR, ANCOVA LS mean: −0.94
  Change from baseline in HOMA-IR, LS mean difference (enavogliflozin − dapagliflozin): 0.05
  Change from baseline in HOMA-IR, Mean: −0.90
  Change from baseline in HOMA-IR, Median: −0.68
  Change from baseline in HOMA-β, ANCOVA LS mean: 8.13
  Change from baseline in HOMA-β, LS mean difference (enavogliflozin − dapagliflozin): 4.93
  Change from baseline in HOMA-β, Mean: 8.74
  Change from baseline in HOMA-β, Median: 4.35
  Change from baseline in UACR, ANCOVA LS mean: -8.76 g/kg
  Change from baseline in UACR, LS mean difference (enavogliflozin − dapagliflozin): 6.09 g/kg
  Change from baseline in UACR, Mean: -11.43 g/kg
  Change from baseline in UACR, Median: -0.50 g/kg
  Change from baseline in UGCR, ANCOVA LS mean: 58.10 mg/mg
  Change from baseline in UGCR, LS mean difference (enavogliflozin − dapagliflozin): 12.35 mg/mg
  Change from baseline in UGCR, Mean: 56.38 mg/mg
  Change from baseline in UGCR, Median: 54.10 mg/mg
  Change from baseline in adiponectin, ANCOVA LS mean: -0.10 µg/mL
  Change from baseline in adiponectin, LS mean difference (enavogliflozin − dapagliflozin): -0.47 µg/mL
  Change from baseline in adiponectin, Mean: -0.08 µg/mL
  Change from baseline in adiponectin, Median: 0.50 µg/mL
  Change from baseline in leptin, ANCOVA LS mean: -1.83 ng/mL
  Change from baseline in leptin, LS mean difference (enavogliflozin − dapagliflozin): 0.20 ng/mL
  Change from baseline in leptin, Mean: -1.75 ng/mL
  Change from baseline in leptin, Median: -0.94 ng/mL
  HOMA-IR (insulin resistance), Mean: 2.00
  HOMA-IR (insulin resistance), Median: 1.54
  HOMA-β (beta-cell function), Mean: 51.08
  HOMA-β (beta-cell function), Median: 38.70
  Leptin, Mean: 8.88 ng/mL
  Leptin, Median: 6.26 ng/mL
  UACR, Mean: 36.67 g/kg
  UACR, Median: 14.80 g/kg
  UGCR, Mean: 57.09 mg/mg
  UGCR, Median: 54.57 mg/mg
[2]
  Achieving HbA1c target of <6.5%, odds ratio (logistic regression model): 0.65
  Achieving HbA1c target of <7%, odds ratio (logistic regression model): 1.22
  Change from baseline in FPG, ANCOVA LS mean difference: -3.24 mg/dL
  Change from baseline in HbA1c, ANCOVA LS mean difference: −0.03 % p
  Change from baseline in body weight, ANCOVA LS mean difference: -0.13 kg
  Change from baseline in fasting C-peptide, ANCOVA LS mean difference: -0.01 ng/mL
  Therapeutic glycemic response 1, odds ratio (logistic regression model): 1.52
  Therapeutic glycemic response 2, odds ratio (logistic regression model): 1.16
  Therapeutic glycemic response 3, odds ratio (logistic regression model): 1.38
[3]
  Body weight, Mean: 67.13 kg
  Change from baseline in FPG, ANCOVA LS mean: -25.96 mg/dL
  Change from baseline in FPG, Mean: -25.72 mg/dL
  Change from baseline in FPG, Median: -24.50 mg/dL
  Change from baseline in HbA1c, ANCOVA LS mean: −0.73 % p
  Change from baseline in HbA1c, Mean: −0.74 % p
  Change from baseline in HbA1c, Median: −0.65 % p
  Change from baseline in body weight, ANCOVA LS mean: -1.92 kg
  Change from baseline in body weight, Mean: -1.87 kg
  Change from baseline in body weight, Median: -1.90 kg
  Change from baseline in fasting C-peptide, ANCOVA LS mean: -0.05 ng/mL
  Change from baseline in fasting C-peptide, Mean: -0.06 ng/mL
  Change from baseline in fasting C-peptide, Median: -0.07 ng/mL
  FPG, Mean: 114.21 mg/dL
  FPG, Median: 113.00 mg/dL
